ChEMBL document CHEMBL4184145, “Synthesis and structure-activity relationship of teixobactin analogues via convergent Ser ligation” (2017)
Converted amounts (≈) assume the structure as drawn.

Assays:
Staphylococcus aureus [1] = assay: Antibacterial activity against methicillin-susceptible Staphylococcus aureus ATCC 29213 by broth dilution assay; type: functional
Staphylococcus aureus [2] = assay: Antibacterial activity against methicillin-resistant Staphylococcus aureus clinical isolate SA86 by broth dilution assay; type: functional

## CC[C@H](C)[C@H](NC(=O)[C@@H](Cc1ccccc1)NC)C(=O)N[C@@H](CO)C(=O)N[C@H](CCC(N)=O)C(=O)N[C@@H](C(=O)N[C@H](C(=O)N[C@@H](CO)C(=O)N[C@H]1C(=O)N[C@@H](C)C(=O)N[C@@H](CCCN)C(=O)N[C@@H]([C@@H](C)CC)C(=O)O[C@H]1C)[C@@H](C)CC)C(C)C
Staphylococcus aureus [1]
  MIC: 8 to 16 µg/mL (≈ 6.73 to 13.5 µM)
Staphylococcus aureus [2]
  MIC: 16 µg/mL (≈ 13.5 µM)

## CC[C@@H](C)[C@@H](NC(=O)[C@@H](CCC(N)=O)NC(=O)[C@H](CO)NC(=O)[C@@H](NC(=O)[C@H](N)Cc1ccccc1)[C@@H](C)CC)C(=O)N[C@H](C(=O)N[C@@H](CO)C(=O)N[C@H]1C(=O)N[C@@H](C)C(=O)N[C@@H](CCCN)C(=O)N[C@@H]([C@@H](C)CC)C(=O)O[C@H]1C)[C@@H](C)CC
Staphylococcus aureus [1]
  MIC: 16 µg/mL (≈ 13.5 µM)
Staphylococcus aureus [2]
  MIC: 16 µg/mL (≈ 13.5 µM)

## CC[C@@H](C)[C@@H](NC(=O)[C@@H](CCC(N)=O)NC(=O)[C@H](CO)NC(=O)[C@@H](NC(=O)[C@@H](Cc1ccccc1)NC)[C@@H](C)CC)C(=O)N[C@H](C(=O)N[C@@H](CO)C(=O)N[C@H]1C(=O)N[C@@H](CCCN)C(=O)N[C@@H](CCCN)C(=O)N[C@@H]([C@@H](C)CC)C(=O)O[C@H]1C)[C@@H](C)CC
Staphylococcus aureus [1]
  MIC: 8 µg/mL (≈ 6.42 µM)
Staphylococcus aureus [2]
  MIC: 8 µg/mL (≈ 6.42 µM)

## CC[C@@H](C)[C@@H](NC(=O)[C@H](CCC(N)=O)NC(=O)[C@H](CO)NC(=O)[C@@H](NC(=O)[C@@H](Cc1ccccc1)NC)[C@@H](C)CC)C(=O)N[C@H](C(=O)N[C@@H](CO)C(=O)N[C@H]1C(=O)N[C@@H](C)C(=O)N[C@@H](CCCN)C(=O)N[C@@H]([C@@H](C)CC)C(=O)O[C@H]1C)[C@@H](C)CC
Staphylococcus aureus [1]
  MIC: ≥ 32 µg/mL
Staphylococcus aureus [2]
  MIC: ≥ 32 µg/mL

## CC[C@@H](C)[C@@H](NC(=O)[C@@H](CCC(N)=O)NC(=O)[C@H](CC(N)=O)NC(=O)[C@@H](NC(=O)[C@@H](Cc1ccccc1)NC)[C@@H](C)CC)C(=O)N[C@H](C(=O)N[C@@H](CO)C(=O)N[C@H]1C(=O)N[C@@H](C)C(=O)N[C@@H](CCCN)C(=O)N[C@@H]([C@@H](C)CC)C(=O)O[C@H]1C)[C@@H](C)CC
Staphylococcus aureus [1]
  MIC: 16 µg/mL (≈ 13 µM)
Staphylococcus aureus [2]
  MIC: ≥ 32 µg/mL

## CC[C@@H](C)[C@@H](NC(=O)[C@@H](CCC(N)=O)NC(=O)[C@H](C)NC(=O)[C@@H](NC(=O)[C@@H](Cc1ccccc1)NC)[C@@H](C)CC)C(=O)N[C@H](C(=O)N[C@@H](CO)C(=O)N[C@H]1C(=O)N[C@@H](C)C(=O)N[C@@H](CCCN)C(=O)N[C@@H]([C@@H](C)CC)C(=O)O[C@H]1C)[C@@H](C)CC
Staphylococcus aureus [1]
  MIC: 4 µg/mL (≈ 3.37 µM)
Staphylococcus aureus [2]
  MIC: 4 µg/mL (≈ 3.37 µM)

## CC[C@@H](C)[C@@H](NC(=O)[C@@H](CCC(N)=O)NC(=O)[C@H](CO)NC(=O)[C@@H](NC(=O)[C@@H](Cc1ccccc1)NC)C(C)C)C(=O)N[C@H](C(=O)N[C@@H](CO)C(=O)N[C@H]1C(=O)N[C@@H](C)C(=O)N[C@@H](CCCN)C(=O)N[C@@H]([C@@H](C)CC)C(=O)O[C@H]1C)[C@@H](C)CC
Staphylococcus aureus [1]
  MIC: 8 µg/mL (≈ 6.73 µM)
Staphylococcus aureus [2]
  MIC: 8 to 16 µg/mL (≈ 6.73 to 13.5 µM)

## CC[C@@H](C)[C@@H](NC(=O)[C@@H](CCC(N)=O)NC(=O)[C@H](CO)NC(=O)[C@H](CC(C)C)NC(=O)[C@@H](Cc1ccccc1)NC)C(=O)N[C@H](C(=O)N[C@@H](CO)C(=O)N[C@H]1C(=O)N[C@@H](C)C(=O)N[C@@H](CCCN)C(=O)N[C@@H]([C@@H](C)CC)C(=O)O[C@H]1C)[C@@H](C)CC
Staphylococcus aureus [1]
  MIC: 4 to 8 µg/mL (≈ 3.33 to 6.65 µM)
Staphylococcus aureus [2]
  MIC: 4 to 8 µg/mL (≈ 3.33 to 6.65 µM)

## CC[C@@H](C)[C@@H](NC(=O)[C@@H](CC(N)=O)NC(=O)[C@H](CO)NC(=O)[C@@H](NC(=O)[C@@H](Cc1ccccc1)NC)[C@@H](C)CC)C(=O)N[C@H](C(=O)N[C@@H](CO)C(=O)N[C@H]1C(=O)N[C@@H](C)C(=O)N[C@@H](CCCN)C(=O)N[C@@H]([C@@H](C)CC)C(=O)O[C@H]1C)[C@@H](C)CC
Staphylococcus aureus [1]
  MIC: 4 µg/mL (≈ 3.37 µM)
Staphylococcus aureus [2]
  MIC: 4 µg/mL (≈ 3.37 µM)
